This note sets out measurements from ChEMBL document CHEMBL5303573, “Mapping human microbiome drug metabolism by gut bacteria and their genes” (Nature, 2019).

Structures are written as SMILES.

Data set [1] can be described thus: The drug is tested on Bifidobacterium longum subsp. Infantis strain: CCUG52486 for biotransformation. The drug concentrations were measured before and after a 12-h incubation by liquid-chromatography-coupled mass spectrometry (LC–MS). Particulars: 2 µM.
A short description of data set [2]: The drug is tested on Collinsella aerofaciens strain: ATCC25986 for biotransformation. The drug concentrations were measured before and after a 12-h incubation by liquid-chromatography-coupled mass spectrometry (LC–MS). Particulars: 2 µM.
The nature of data set [3]: The drug is tested on Bacteroides dorei strain: DSM17855 for biotransformation. The drug concentrations were measured before and after a 12-h incubation by liquid-chromatography-coupled mass spectrometry (LC–MS). Particulars: phocaeicola dorei, 2 µM.
Data set [4] is described as follows: The drug is tested on Bacteroides ovatus strain: ATCC8483 for biotransformation. The drug concentrations were measured before and after a 12-h incubation by liquid-chromatography-coupled mass spectrometry (LC–MS). Particulars: 2 µM.
Data set [5] in a line: The drug is tested on Blautia luti strain: DSM14534 for biotransformation. The drug concentrations were measured before and after a 12-h incubation by liquid-chromatography-coupled mass spectrometry (LC–MS). Type of data set: ADME. Set-up: dose 2 uM, timepoint 0 vs 12 hours. Particulars: 2 µM.
Data set [6] can be described thus: The drug is tested on Clostridium asparagiforme strain: DSM15981 for biotransformation. The drug concentrations were measured before and after a 12-h incubation by liquid-chromatography-coupled mass spectrometry (LC–MS). Conditions: enterocloster asparagiformis, 2 µM. In kind it is ADME. Set-up: dose 2 uM, timepoint 0 vs 12 hours.
Data set [7] is described as follows: The drug is tested on Clostridium scindens strain: ATCC35704 for biotransformation. The drug concentrations were measured before and after a 12-h incubation by liquid-chromatography-coupled mass spectrometry (LC–MS). Particulars: 2 µM.
Data set [8] is described as follows: The drug is tested on Eubacterium hallii strain: DSM3353 for biotransformation. The drug concentrations were measured before and after a 12-h incubation by liquid-chromatography-coupled mass spectrometry (LC–MS). Conditions: anaerobutyricum hallii, 2 µM.
Data set [9] can be described thus: The drug is tested on Eubacterium ventriosum strain: ATCC27560 for biotransformation. The drug concentrations were measured before and after a 12-h incubation by liquid-chromatography-coupled mass spectrometry (LC–MS). Type of data set: ADME. Conditions: 2 µM. Set-up: dose 2 uM, timepoint 0 vs 12 hours.
For data set [10] the following is noted: bifidobacterium adolescentis, 12 h, 2 µM.
Description: The drug is tested on Bifidobacterium adolescentis strain: ATCC 15703 for biotransformation. The drug concentrations were measured before and after a 12-h incubation by liquid-chromatography-coupled mass spectrometry (LC–MS)
For data set [11] the following is noted: bacteroides fragilis, 12 h, 2 µM.
Description: The drug is tested on Bacteroides fragilis strain: NCTC 9343 for biotransformation. The drug concentrations were measured before and after a 12-h incubation by liquid-chromatography-coupled mass spectrometry (LC–MS)
The conditions of data set [12]: bacteroides fragilis, 12 h, 2 µM. This is another data set of the same source.
Description: The drug is tested on Bacteroides fragilis strain: 3397 (T10) for biotransformation. The drug concentrations were measured before and after a 12-h incubation by liquid-chromatography-coupled mass spectrometry (LC–MS)
The conditions of data set [13]: bacteroides thetaiotaomicron, 12 h, 2 µM.
Description: The drug is tested on Bacteroides thetaiotaomicron strain: 3731 for biotransformation. The drug concentrations were measured before and after a 12-h incubation by liquid-chromatography-coupled mass spectrometry (LC–MS)
For data set [14] the following is noted: roseburia intestinalis, 12 h, 2 µM.
Description: The drug is tested on Roseburia intestinalis strain: L1-82 for biotransformation. The drug concentrations were measured before and after a 12-h incubation by liquid-chromatography-coupled mass spectrometry (LC–MS)
Data set [15] in a line: The drug is tested on Bifidobacterium breve strain: DSM20213 for biotransformation. The drug concentrations were measured before and after a 12-h incubation by liquid-chromatography-coupled mass spectrometry (LC–MS). Conditions: 2 µM.
Data set [16] in a line: The drug is tested on Clostridium sporogenes strain: ATCC15579 for biotransformation. The drug concentrations were measured before and after a 12-h incubation by liquid-chromatography-coupled mass spectrometry (LC–MS). Conditions: 2 µM.
Data set [17] is described as follows: The drug is tested on Ruminococcus torques strain: ATCC27756 for biotransformation. The drug concentrations were measured before and after a 12-h incubation by liquid-chromatography-coupled mass spectrometry (LC–MS). Type of data set: ADME. Also on record: dose 2 uM, timepoint 0 vs 12 hours. Particulars: 2 µM.
The nature of data set [18]: The drug is tested on Ruminococcus lactaris strain: ATCC29176 for biotransformation. The drug concentrations were measured before and after a 12-h incubation by liquid-chromatography-coupled mass spectrometry (LC–MS). Conditions: 2 µM.
A short description of data set [19]: The drug is tested on Bifidobacterium ruminantium strain: fecal isolate for biotransformation. The drug concentrations were measured before and after a 12-h incubation by liquid-chromatography-coupled mass spectrometry (LC–MS). Conditions: 2 µM.
A short description of data set [20]: The drug is tested on Clostridium sp. strain: fecal isolate for biotransformation. The drug concentrations were measured before and after a 12-h incubation by liquid-chromatography-coupled mass spectrometry (LC–MS). Conditions: 2 µM.

With `OC(c1cc(C(F)(F)F)nc2c(C(F)(F)F)cccc12)C1CCCCN1` (centres undefined) [MEFLOQUINE], the “Bacterial Biotransformation” value in data set [1], in [2], in data set [3], in [4], in [5] and in data set [6] was “Compound NOT metabolized” each time. Moreover, the “Bacterial Biotransformation” value in [7], in data set [8], in data set [9], in [10], in [11] and in [12] was “Compound NOT metabolized” each time. Also, the “Bacterial Biotransformation” value is given as “Compound NOT metabolized” in [13] and “Compound metabolized” in [14].
Take `CC(CN1c2ccccc2Sc2ccccc21)N(C)C` (centres undefined) [PROMETHAZINE]: the “Bacterial Biotransformation” value in [15], in data set [1], in data set [2], in [4], in [5] and in [6] was “Compound NOT metabolized” each time. Also, the “Bacterial Biotransformation” value in [7], in [16], in data set [8], in [9], in [17] and in data set [10] was “Compound NOT metabolized” throughout. In addition, the “Bacterial Biotransformation” value in data set [11], in [12] and in [13] was “Compound NOT metabolized” in each case.
In the case of `CCN(CC)CCCC(C)Nc1c2ccc(Cl)cc2nc2ccc(OC)cc12` (centres undefined) [QUINACRINE], the “Bacterial Biotransformation” value in [15], in data set [1], in data set [2], in [3], in data set [4] and in [5] was “Compound NOT metabolized” each time. The “Bacterial Biotransformation” value in data set [6], in [16], in [8], in data set [9], in data set [17] and in data set [10] was “Compound NOT metabolized” in each case. Also, the “Bacterial Biotransformation” value in data set [11], in data set [12], in data set [13] and in data set [14] was “Compound NOT metabolized” throughout.
As to `CCCN(CCC)CCc1cccc2c1CC(=O)N2` [ROPINIROLE], the “Bacterial Biotransformation” value in [15], in data set [1], in data set [2], in [3], in data set [4] and in [5] was “Compound NOT metabolized” each time. Further, the “Bacterial Biotransformation” value in data set [6], in data set [7], in data set [16], in [8], in data set [9] and in [18] was “Compound NOT metabolized” in each case. For the same compound, the “Bacterial Biotransformation” value in data set [17], in data set [10], in data set [11] and in [14] was “Compound NOT metabolized” throughout.
Turning to `CC(C)(C)NC[C@H](O)COc1nsnc1N1CCOCC1.O=C(O)/C=C\C(=O)O` [TIMOLOL MALEATE], the “Bacterial Biotransformation” value in data set [15], in data set [1], in data set [19], in [2], in data set [3] and in data set [4] was “Compound NOT metabolized” throughout. Also, the “Bacterial Biotransformation” value in data set [5], in data set [20], in data set [7], in data set [16], in data set [8] and in data set [9] was “Compound NOT metabolized” each time. Moreover, the “Bacterial Biotransformation” value in data set [18], in data set [17], in data set [10], in data set [11], in [12] and in data set [13] was “Compound NOT metabolized” each time. The “Bacterial Biotransformation” value in data set [14] was “Compound NOT metabolized”.
As for `CC[C@@]1(O)C(=O)OCc2c1cc1n(c2=O)Cc2cc3c(CN(C)C)c(O)ccc3nc2-1` [TOPOTECAN], the “Bacterial Biotransformation” value in data set [15], in [1], in data set [19], in data set [2], in data set [3] and in data set [4] was “Compound NOT metabolized” in each case. In addition, the “Bacterial Biotransformation” value in data set [5], in data set [20], in data set [7], in data set [16], in [8] and in data set [9] was “Compound NOT metabolized” each time. For the same compound, the “Bacterial Biotransformation” value in data set [18], in [17], in data set [10], in [11], in data set [12] and in data set [13] was “Compound NOT metabolized” each time. Moreover, the “Bacterial Biotransformation” value in data set [14] was “Compound NOT metabolized”.
Consider `Cc1cn([C@H]2C[C@H](N=[N+]=[N-])[C@@H](CO)O2)c(=O)[nH]c1=O` [ZIDOVUDINE], for which the “Bacterial Biotransformation” value in data set [15] is given as “Compound NOT metabolized”; in [1] it was “Compound NOT metabolized”; in data set [3], “Compound metabolized”; in [4] it was “Compound NOT metabolized”; in data set [5], “Compound NOT metabolized”; in data set [6] it was “Compound NOT metabolized”. Also, the “Bacterial Biotransformation” value was “Compound NOT metabolized” in [7]; “Compound metabolized” in data set [16]; “Compound NOT metabolized” in data set [8]; “Compound NOT metabolized” in [18]; “Compound NOT metabolized” in data set [17]; “Compound NOT metabolized” in [10]. Besides, the “Bacterial Biotransformation” value is “Compound metabolized” in data set [12], “Compound NOT metabolized” in data set [13] and “Compound metabolized” in data set [14].
